Test results from patent US12161630B2, “Methods to control infection using new generation small molecule growth inhibitors” (priority 2017, dated 2024).
Values after ≈ are worked out from the molar mass of the structure shown.

Tests used:
Salmonella Anatum = experiment: MIC and MBC dose-response, serotype Anatum; format: cell-based, Salmonella enterica; conditions: MIC identical to MBC
Method: (§1) An overnight Salmonella suspension was normalized at 0.05 OD600 (approximately 3.5×10^7 CFU/ml) with an adjusted M9 minimal broth medium (12.7 mM Na2HPO4 7H2O; 22 mM KH2PO4; 18.7 mM NH4Cl; 2 mM MgSO4; 0.1 mM CaCl2; 0.4% glucose; 0.05% casamino acids). 100 μL of the suspension plus 2 μl of SMs (200 μM) were transferred into each well of a sterile, non-treated, flat bottom 96-well plate. Bacteria alone (negative control, NC), 2% DMSO plus bacteria (DMSO control), 20 μg/ml chloramphenicol or 50 μg/ml kanamycin plus bacteria (positive controls, PC), and M9 medium only were used as control. Plates were incubated in a Sunrise™ Tecan kinetic microplate reader for 12 hrs at 37° C. and the optical density (OD) was measure at 600 nm as described above. Percentage of inhibition=(OD600 SM−OD600 NC)/(OD600 NC)×100. […] Cultures from wells showing no turbidimetric increase were transferred onto a XLT4 agar plate. Plates were incubated at 37° C. for 36 hrs.
(§2) Screens were performed as described in the primary screen. The lowest SM concentration with a static effect was considered as the minimal inhibitory concentration (MIC) and the lowest SM concentration with a cidal effect was considered as the minimal bactericidal concentration (MBC).

Salmonella Braenderup = experiment: MIC and MBC dose-response, serotype Braenderup; format: cell-based, Salmonella enterica; conditions: MIC identical to MBC
Salmonella Newport = experiment: MIC and MBC dose-response, serotype Newport; format: cell-based, Salmonella enterica; conditions: MIC identical to MBC
Method: as §1, §2

Salmonella Saint-Paul = experiment: MIC and MBC dose-response, serotype Saint-Paul; format: cell-based; conditions: MIC identical to MBC
Method: as §1, §2

M. gallisepticum = experiment: Activity on avian pathogens at 200 μM, M. gallisepticum; format: cell-based, Mycoplasma gallisepticum
Method: FIGS. 1(A-E). Selection of potent Salmonella growth inhibitors. FIG. 1A: High-throughput screening of 4182 SMs against S. typhimurium WT at 200 μM. Negative value: growth inhibition; Positive value: growth stimulation compared to S. typhimurium growth not treated. The black line represents growth inhibition caused by 2% DMSO. FIG. 1B: Activity of 19 S. typhimurium growth inhibitors against additional Salmonella serotypes. Light grey cells: total growth inhibition; dark grey cells: bacterial growth observed; black cells: not determined. FIG. 1C: Dose-response assays of the selected 19 SMs against S. typhimurium WT. […] The black line represents a cut off of nine serotypes killed per SM. FIG. 1E: Activity spectra of the selected four SMs at 200 μM each on several avian-pathogens (Campylobacter jejuni, Escherichia coli APEC, and Mycoplasma gallisepticum) and beneficial gut bacteria (remaining species). E. coli APEC refers to Avian Pathogenic E. coli and includes E. coli O1, O2, O8, O15, O18, O35, O78, O109, and O115. Light grey cells: cidal effect; dark grey cells: bacterial growth observed. Left side: phylogenetic tree based on NCBI taxonomic ID built with PhyloT software.
The selected four SMs were tested on twelve beneficial-commensal gut bacteria at 200 μM (FIG. 1E). […] These four SMs were also growth inhibitors of other avian pathogens at 200 μM (unpublished data, FIG. 1E). […] The antimicrobial activity seemed not to be influenced by the taxonomic classification, however the SM5 bacterial target may be less present in prokaryotes than the drug target of the other three SMs.

[1] = test system: S. typhimurium cell membrane; experiment: Crystal violet uptake after treatment with lethal dose of SMs; format: cell-based; conditions: 1 hr; for reduction of crystal violet uptake: compared to 1% DMSO control
Method: (§3) To further support the observation obtained with confocal microscopy, the same samples were analyzed using scanning electron microscopy (SEM; FIG. 13P-S). […] Smaller outer membrane vesicles of approximately 20 to 70 nm were also observed covering the surface of the bacteria. […] These conclusions were further supported by measuring the crystal violet uptake and leakage of materials assessed at 260 nm after 1 hr of treatment with a lethal dose of SMs.

[2] = test system: S. typhimurium cell membrane; experiment: Leakage of 260 nm-absorbing material after treatment with lethal dose of SMs; format: cell-based; conditions: 1 hr, compared to 1% DMSO control
Method: as §3

sheep red blood cells = experiment: Hemolytic activity in sheep RBCs; format: cell-based; conditions: 200 μM, one-hour treatment
Method: (§4) Briefly, 200 μl of 10% sheep red blood cells (RBCs; LAMPIRE Biological Laboratories, Pipersville, PA) suspension was incubated with 1 μl of SMs (200 μM) for one hour at 37° C. in a sterile, non-treated, flat bottom plate 96-well. After incubation, the plate was centrifuged at 4000 rpm for 5 min at 4° C., then placed on ice for five min. 100 μL of the supernatant was transferred into a new sterile, treated, flat bottom 96-well plate, and the OD was measured at 540 nm. For this experiment, 2% DMSO (negative control) and 0.1% Triton-100X (positive control) were used. % Hemolysis=(OD540 SM−OD540 DMSO)/(OD540 1× triton−OD540 PBS)×100. Similar experiment was performed with chicken RBCs (OARDC, Ohio).

chicken red blood cells = experiment: Hemolytic activity in chicken RBCs; format: cell-based; conditions: 200 μM, one-hour treatment
Method: as §4

[3] = test system: Galleria mellonella larvae; experiment: Toxicity on Galleria mellonella larva; format: in vivo; conditions: over 72 HPI, single treatment with 12.5 μg per larva
Method: Toxicity of the selected four SMs on Galleria mellonella larva: Galleria mellonella larvae (fifth instar stage) were incubated for 12 hrs at 37° C. in the dark. After incubation, only larvae with a white phenotype and a body weight ranging between 225 mg to 275 mg were selected for the injection. Fifteen larvae per group were inoculated in one of the last pro-leg with 12.5 μg of SMs (8.5 μl) using a PB600-1 repeating dispenser (Hamilton, Reno, NV) attached to 300 μl insulin syringe, 31-gauge, 8 mm needle length (ReliOn®, Bentonville, AR). SMs were diluted into a buffer mix (30% DMSO plus 10 mM MgSO4). Larvae were placed inside a plastic petri dish and incubated for 3 days in the dark at 37° C. Every 12 hrs of interval, the larva survival was monitored. Non-treated larvae, larvae treated with the buffer mix, and larvae treated with 12.5 μg of chloramphenicol were used as control. At least two independent experiments were conducted.

[4] = test system: twelve beneficial-commensal gut bacteria; experiment: Activity spectrum on twelve beneficial-commensal gut bacteria at 200 μM; format: cell-based
Method: SM activity spectrum: The 128 selected SMs were tested for antimicrobial effects on nine different serotypes frequently implicated in foodborne gastroenteritis outbreaks. Later in the study, the four best SMs were tested against twelve beneficial/commensal gut bacteria. Both screens were performed at 200 μM as described in the primary screening. Growth conditions for each strain are described in Table 1.

CCOc1cc(/C=N/N=C(N)N)ccc1OCc1ccc(Cl)cc1 [SM5, N″-{4-[(4-chlorobenzyl)oxy]-3-ethoxybenzylidene}carbonohydrazonic diamide] was tested, and the “MIC/MBC” value (Salmonella Anatum) was 50 µM (≈ 17.3 µg/mL), the “MIC/MBC” value (Salmonella Braenderup) was 50 µM (≈ 17.3 µg/mL) and the “MIC/MBC” value (Salmonella Newport) was 50 µM (≈ 17.3 µg/mL). The “MIC/MBC” value (Salmonella Saint-Paul) was 50 µM (≈ 17.3 µg/mL), the “effect against M. gallisepticum” value (M. gallisepticum) was “killed” and the “increase in permeability (crystal violet uptake)” value ([1]; compared to 1% DMSO-treated cells) was 2.32 fold. The “increase in 260 nm-absorbing material” value [2] was 5.25 fold, the “hemolytic activity in sheep RBCs” value (sheep red blood cells) was “lower than 1%” and the “hemolytic activity in chicken RBCs” value (chicken red blood cells) was “lower than 1%”. The “lethal effect in G. mellonella larvae” value [3] was “killed only a few larvae”.

In the case of CC1CCC(C(C)C)C(OC(=O)Cn2c[n+](CC(=O)OC3CC(C)CCC3C(C)C)c3ccccc32)C1.[Cl-] (stereo not shown) [SM1, 1,3-bis{2-[(2-isopropyl-5-methylcyclohexyl)oxy]-2-oxoethyl}-1H-3,1-benzimidazol-3-ium chloride], the “MIC/MBC” value (Salmonella Anatum) is reported as 100 µM, the “MIC/MBC” value (Salmonella Braenderup) is reported as 100 µM and the “MIC/MBC” value (Salmonella Newport) is reported as 100 µM. The “MIC/MBC” value (Salmonella Saint-Paul) was 100 µM, the “reduction of crystal violet uptake” value [1] was 1.88 fold and the “increase in 260 nm-absorbing material” value [2] was 2.18 fold. For the same molecule, the “hemolytic activity in sheep RBCs” value (sheep red blood cells) was > 50%, the “hemolytic activity in chicken RBCs” value (chicken red blood cells) was > 50% and the “lethal effect in G. mellonella larvae” value [3] was “chronic death of the larvae over time”.

With CCCCCCCCCCCCCCCCn1c[n+](C)c2ccccc21.[Br-] [SM4, 1-hexadecyl-3-methyl-1H-3,1-benzimidazol-3-ium bromide] the “MIC/MBC” value (Salmonella Anatum) was 10 µM, the “MIC/MBC” value (Salmonella Braenderup) was 10 µM and the “MIC/MBC” value (Salmonella Newport) was 25 µM. For the same molecule, the “MIC/MBC” value (Salmonella Saint-Paul) was 10 µM, the “activity on twelve beneficial-commensal gut bacteria” value [4] was “killing all twelve strains tested” and the “effect against M. gallisepticum” value (M. gallisepticum) was “killed”. For the same molecule, the “reduction of crystal violet uptake” value [1] was 2.01 fold, the “increase in 260 nm-absorbing material” value [2] was 15.95 fold and the “lethal effect in G. mellonella larvae” value [3] was “no lethal effect”.

For CCCCCCCCCCCCCCCC[n+]1ccn(CC#N)c1.[Cl-] [SM3, 1-(cyanomethyl)-3-hexadecyl-1H-imidazol-3-ium chloride], the “MIC/MBC” value (Salmonella Anatum) was 25 µM, the “MIC/MBC” value (Salmonella Braenderup) was 25 µM and the “MIC/MBC” value (Salmonella Newport) was 50 µM. The “MIC/MBC” value (Salmonella Saint-Paul) was 50 µM, the “activity on twelve beneficial-commensal gut bacteria” value [4] was “killing all twelve strains tested” and the “effect against M. gallisepticum” value (M. gallisepticum) was “killed”. For the same molecule, the “reduction of crystal violet uptake” value [1] was 4.46 fold, the “increase in 260 nm-absorbing material” value [2] was 7.17 fold and the “lethal effect in G. mellonella larvae” value [3] was “killed only a few larvae”.
